Test results taken from patent US8809498B2, “Pepstatin A derivatives” (priority 2008, dated 2014).
Non-standard residues stand in square brackets, D forms with d. Residues, ends and D or L forms follow the SMILES beside them. *: point of attachment. Phe(3-F) = N[C@@H](Cc1cccc(F)c1)C(=O)O; Phe(2-F) = N[C@@H](Cc1ccccc1F)C(=O)O; Sta = CC(C)C[C@H](N)[C@@H](O)CC(=O)O; Isovaleryl = CC(C)CC(=O)*

Legend:
Type in all cases: biochemical
Saps of Candida albicans = test: Overall Sap inhibition (summary of table 1); conditions: table 1 summary
Experimental: (§1) For this purpose, that inhibitor concentration was determined in vitro at which the proteolytic activity of the enzyme or its velocity of metabolizing a substrate, respectively, was reduced for 50%.
(§2) The proteolytic activity of the tested Saps was determined at the pH optimum of those Saps. Resorufin-marked casein was used as substrate. Proteolysis of casein can be detected by an increase in fluorescence due to released resorufin (a fluorescence marker) by proteolysis.
Sap1, Sap3 and Sap6 of Candida albicans were independently dissolved in 2-(N-morpholino)ethanesulfonic acid (MES) having a concentration of 10 mmol/l and a pH of 6.5 resulting in enzyme solutions having a Sap concentration of 100 mmol/l. After one hour incubation at room temperature, 80 μl of a substrate solution comprising resorufin-marked casein in a sodium citrate buffer having a concentration of 500 mmol/l and a pH of 3.5 (in case of Sap3), 4.5 (in case of Sap1) and 5.0 (in case of Sap6) were added to 20 μl of enzyme solution. The resulting Sap concentration was 5 nmol/l. The resulting casein concentration was chosen such that the Saps could work in excess of substrate. […]
(§3) To carry out fluorescence measurements, 100 μl of the supernatant were mixed with 100 μl Tris-HCl (trishydroxymethylaminomethane-HCl) having a concentration of 1 mol/l and a pH of 10.0. The fluorescence of this mixture was measured directly after adding Tris-HCl using an excitation wavelength of 530 nm and an emission wavelength of 590 nm on a CytoFluor 2350 apparatus (Millipore, Bedford, Mass., USA), wherein sensitivity was set to 2 and bandwidth was set to 7.
(§4) The average of three independent fluorescence measurements was calculated. The fluorescence of enzyme without inhibitor (i.e. inhibitor concentration of 0 nmol/l) was set to 100% enzyme activity. The activity of inhibited enzyme was calculated accordingly from the fluorescence of inhibited enzyme with respect to fluorescence of enzyme without inhibitor. Finally, the enzyme activity was plotted against the inhibitor concentration and the IC50 value was determined.

Sap5 = Sap5 (Candida albicans, UniProt P43094); test: Inhibition of proteolytic activity of Sap5
Chain of Sap5 (P43094 77-418): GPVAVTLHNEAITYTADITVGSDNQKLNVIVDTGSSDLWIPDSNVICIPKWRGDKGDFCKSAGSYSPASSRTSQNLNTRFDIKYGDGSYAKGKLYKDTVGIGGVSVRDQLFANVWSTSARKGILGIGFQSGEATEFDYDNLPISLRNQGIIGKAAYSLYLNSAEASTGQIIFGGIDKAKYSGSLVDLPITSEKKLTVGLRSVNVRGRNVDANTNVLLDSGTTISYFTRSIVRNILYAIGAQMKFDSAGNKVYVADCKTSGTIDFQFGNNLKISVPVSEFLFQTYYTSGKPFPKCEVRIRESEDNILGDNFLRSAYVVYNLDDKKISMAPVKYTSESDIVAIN
Experimental: as §1, §2
(§5) The mixture of enzyme and substrate or of enzyme, substrate and inhibitor was incubated at 37° C. under agitation at 300 rpm (rounds per minute) for 60 min in each case. Afterwards, 20 μl of a trichloroacetic acid solution (30%, w/v) were added. The mixture was placed on ice for 5 minutes and centrifuged afterwards for 3 min at 6000 rpm. The supernatant was removed.
as §3, §4

Sap3 of Candida albicans = Sap3 of Candida albicans (Candida albicans, UniProt P0CY29); test: Inhibition of proteolytic activity of Sap3 (resorufin-marked casein, fluorescence)
Chain of Sap3 of Candida albicans (P0CY29 59-398): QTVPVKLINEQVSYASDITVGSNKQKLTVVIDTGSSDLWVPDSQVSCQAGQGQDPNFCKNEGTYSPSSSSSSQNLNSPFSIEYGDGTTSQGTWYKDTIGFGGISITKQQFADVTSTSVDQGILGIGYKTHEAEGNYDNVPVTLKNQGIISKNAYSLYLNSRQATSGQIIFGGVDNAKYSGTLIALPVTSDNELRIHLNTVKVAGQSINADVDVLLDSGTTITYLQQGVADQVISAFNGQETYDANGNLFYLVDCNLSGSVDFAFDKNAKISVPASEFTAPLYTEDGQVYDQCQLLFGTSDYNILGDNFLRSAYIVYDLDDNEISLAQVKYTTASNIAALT
Experimental: as §1, §2
(§6) Sap1, Sap3 and Sap6 of Candida albicans were independently dissolved in 2-(N-morpholino)ethanesulfonic acid (MES) having a concentration of 10 mmol/l and a pH of 6.5 resulting in enzyme solutions having a Sap concentration of 100 mmol/l. After one hour incubation at room temperature, 80 μl of a substrate solution comprising resorufin-marked casein in a sodium citrate buffer having a concentration of 500 mmol/l and a pH of 3.5 (in case of Sap3), 4.5 (in case of Sap1) and 5.0 (in case of Sap6) were added to 20 μl of enzyme solution. The resulting Sap concentration was 5 nmol/l. The resulting casein concentration was chosen such that the Saps could work in excess of substrate. Different Sap inhibitors were added, resulting in a final inhibitor concentration of 1 nmol/1, 2 nmol/1, 5 nmol/1, 10 nmol/l, nmol/l or 50 nmol/l in each case. One enzyme-substrate sample was left without addition of inhibitor. All experiments were performed in triplicate.
as §5, §3, §4

Sap6 of Candida albicans = Sap6 of Candida albicans (Candida albicans, UniProt Q5AC08); test: Inhibition of proteolytic activity of Sap6 (resorufin-marked casein, fluorescence)
Chain of Sap6 of Candida albicans (Q5AC08 77-418): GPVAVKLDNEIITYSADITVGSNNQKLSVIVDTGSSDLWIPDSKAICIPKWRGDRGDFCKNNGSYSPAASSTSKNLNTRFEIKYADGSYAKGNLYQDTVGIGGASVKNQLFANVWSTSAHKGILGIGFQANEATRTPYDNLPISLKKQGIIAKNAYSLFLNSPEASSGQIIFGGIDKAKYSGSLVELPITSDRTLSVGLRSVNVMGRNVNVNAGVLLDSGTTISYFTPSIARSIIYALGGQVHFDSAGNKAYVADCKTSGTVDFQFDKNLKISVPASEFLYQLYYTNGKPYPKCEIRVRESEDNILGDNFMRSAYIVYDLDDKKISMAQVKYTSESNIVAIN
Experimental: as §1, §2, §6, §5, §3, §4

Sap1 of Candida albicans = Sap1 of Candida albicans (Candida albicans, UniProt P0CY27); test: Inhibition of proteolytic activity of Sap1 (resorufin-marked casein, fluorescence)
Chain of Sap1 of Candida albicans (P0CY27 51-391): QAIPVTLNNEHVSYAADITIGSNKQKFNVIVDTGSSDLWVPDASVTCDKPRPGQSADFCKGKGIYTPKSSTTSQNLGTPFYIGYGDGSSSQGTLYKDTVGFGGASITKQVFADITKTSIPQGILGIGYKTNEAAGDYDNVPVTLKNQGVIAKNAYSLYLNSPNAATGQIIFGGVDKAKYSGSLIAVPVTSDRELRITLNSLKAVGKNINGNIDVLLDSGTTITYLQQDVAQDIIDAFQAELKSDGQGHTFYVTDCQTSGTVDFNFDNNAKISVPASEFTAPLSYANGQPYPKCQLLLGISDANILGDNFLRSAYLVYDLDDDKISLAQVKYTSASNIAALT
Experimental: as §1, §2, §6, §5, §3, §4

`CC(C)CN(C[C@@H](O)[C@H](Cc1ccccc1)NC(=O)O[C@H]1CCOC1)S(=O)(=O)c1ccc(N)cc1` [Amprenavir, reference compound] was tested, and the “IC50 values, range” value (Saps of Candida albicans) was “in the range of micromole per litre”, the IC50 (Sap5) was ~33000 nM and the IC50 (Sap3 of Candida albicans) was ~20000 nM. The IC50 (Sap6 of Candida albicans) was > 50000 nM and the IC50 (Sap1 of Candida albicans) was ~5000 nM.
With `Cc1cccc(C)c1OCC(=O)N[C@@H](Cc1ccccc1)[C@@H](O)C[C@H](Cc1ccccc1)NC(=O)[C@H](C(C)C)N1CCCNC1=O` [Lopinavir, reference compound] the “IC50 values, range” value (Saps of Candida albicans) was “in the range of micromole per litre”, the IC50 (Sap5) was > 312000 nM and the IC50 (Sap3 of Candida albicans) was > 312000 nM. For the same compound, the IC50 (Sap6 of Candida albicans) was > 312000 nM and the IC50 (Sap1 of Candida albicans) was 312000 nM.
In the case of `CC(C)CC(=O)N[C@@H](Cc1cccc(F)c1)C(=O)N[C@H](C(=O)N[C@@H](CC(C)C)[C@@H](O)CC(=O)N[C@@H](C)C(=O)N[C@@H](CC(C)C)[C@@H](O)CC(=O)O)C(C)C` [P3(m-FPhe)-pepstatin, (N-Iva-mFPhe)-Val-Sta-Ala-Sta] (Isovaleryl-[Phe(3-F)]V[Sta]A[Sta]-OH), the IC50 (Sap5) is reported as ~10 nM, the IC50 (Sap3 of Candida albicans) is reported as ~10 nM and the IC50 (Sap6 of Candida albicans) is reported as 10 nM. For the same compound, the IC50 (Sap1 of Candida albicans) was 10 nM.
`CC(C)CC(=O)N[C@@H](Cc1ccccc1F)C(=O)N[C@H](C(=O)N[C@@H](CC(C)C)[C@@H](O)CC(=O)N[C@@H](C)C(=O)N[C@@H](CC(C)C)[C@@H](O)CC(=O)O)C(C)C` [P3(o-FPhe)-pepstatin, (N-Iva-oFPhe)-Val-Sta-Ala-Sta] (Isovaleryl-[Phe(2-F)]V[Sta]A[Sta]-OH) showed an IC50 (Sap5) of ~50 nM, an IC50 (Sap3 of Candida albicans) of ~20 nM and an IC50 (Sap6 of Candida albicans) of ~100 nM. For the same compound, the IC50 (Sap1 of Candida albicans) was ~20 nM.
In the case of `CC(C)CC(=O)N[C@H](C(=O)N[C@H](C(=O)N[C@@H](CC(C)C)[C@@H](O)CC(=O)N[C@@H](C)C(=O)N[C@@H](CC(C)C)[C@@H](O)CC(=O)O)C(C)C)C(C)C` [Pepstatin A] (Isovaleryl-VV[Sta]A[Sta]-OH), the IC50 (Sap5) is reported as 5 nM, the IC50 (Sap3 of Candida albicans) is reported as ~1 nM and the IC50 (Sap6 of Candida albicans) is reported as ~7 nM. It also gave an IC50 (Sap1 of Candida albicans) of ~7 nM.
In the case of `CC(C)c1nc(CN(C)C(=O)N[C@H](C(=O)N[C@@H](Cc2ccccc2)C[C@H](O)[C@H](Cc2ccccc2)NC(=O)OCc2cncs2)C(C)C)cs1` [Ritonavir], the “IC50 values, range” value (Saps of Candida albicans) is reported as “in the range of micromole per litre”.
